How the values were obtained:
established PH due to CH = assay: Established CH-induced pulmonary hypertension (reversal: 3 weeks CH, then SR1001 for 2 more weeks in CH); format: in vivo; conditions: mice
Description: FIGS. 7A-D—TH17 cell inhibition attenuates increases in RVSP in established PH. Wild-type mice were exposed to CH for 21 days followed by administration of SR1001 (25 mg/kg/day s.c.) for an additional 14 days in CH. (A) RVSP. (B) Fulton's index. (C) Pulmonary arterial remodeling. (D) % Hematocrit. Values are means±SEM; *p<0.05 vs. vehicle, n=5-6/group, analyzed by unpaired T-test.
(§1) Methods: Age- and sex-matched mice C57BL/6J wild-type (WT), RAG1 KO mice (lack mature T and B cells), IL-17-GFP mice (express EGFP in cells expressing IL-17A), were used in these studies (The Jackson Laboratory). Mice were exposed to chronic hypoxia (CH) for 2 to 21 days in a hypobaric chamber maintained at a barometric pressure of 380 mmHg. Normoxic animals were housed in identical cages in the same facility under normobaric conditions (PB=630 mmHg in Albuquerque, N. Mex.).
To follow up on the immunologic timing of events, studies were undertaken to understand whether PH due to CH might be reversed once already established by inhibiting TH17 cell development. Therefore, after 3 weeks of CH, osmotic pumps containing SR1001 (0.625 mg/day for 25 g mouse). were implanted sub-cutaneously and animals were immediately returned to CH for an additional 2 weeks (5 weeks of CH total).

[1] = tested on: perivascular T cells (CD3+); assay: Perivascular CD3+ T cells in lung sections of mice exposed to chronic hypoxia (immunohistochemistry); format: in vivo; conditions: WT mice, CH for 2, 5 or 21 days; SR1001 0.625 mg/day for 25 g mouse s.c.; vs vehicle
Description: FIGS. 5A-D—Inhibition of TH17 cell development decreases CH-induced increases in perivascular T cells. Following treatment, lungs sections were stained with an anti-CD3 antibody to allow quantification of CD3+ T cells in the perivascular region of the lungs. The RORyt specific inhibitor, SR1001 was delivered daily by sub-cutaneous injection (0.625 mg/day for 25 g mouse) for the length of normoxic or CH exposure. (A) Perivascular CD3+ cells from mice exposed to 2 days, (B) 5 days or (C) 21 days of normoxia or CH. (D) Representative images of lung sections from mice exposed to CH with or without SR1001. Values are means±SEM, *p<0.05 vs. normoxia vehicle. n=3-4/group, 5-15 arteries<150 μm outer circumference, per mouse, analyzed by 2-way ANOVA followed by multiple comparisons Student-Newman-Keuls test.
as §1, with “Mex.). […]” for “Mex.).”

RORγt = molecular target: T1, RORγt (Homo sapiens, UniProt P51449); conditions: selective inverse agonist; Solt et al., 2011, 2012; cited from earlier work
T1 sequence (P51449 1-497 isoform P51449-2): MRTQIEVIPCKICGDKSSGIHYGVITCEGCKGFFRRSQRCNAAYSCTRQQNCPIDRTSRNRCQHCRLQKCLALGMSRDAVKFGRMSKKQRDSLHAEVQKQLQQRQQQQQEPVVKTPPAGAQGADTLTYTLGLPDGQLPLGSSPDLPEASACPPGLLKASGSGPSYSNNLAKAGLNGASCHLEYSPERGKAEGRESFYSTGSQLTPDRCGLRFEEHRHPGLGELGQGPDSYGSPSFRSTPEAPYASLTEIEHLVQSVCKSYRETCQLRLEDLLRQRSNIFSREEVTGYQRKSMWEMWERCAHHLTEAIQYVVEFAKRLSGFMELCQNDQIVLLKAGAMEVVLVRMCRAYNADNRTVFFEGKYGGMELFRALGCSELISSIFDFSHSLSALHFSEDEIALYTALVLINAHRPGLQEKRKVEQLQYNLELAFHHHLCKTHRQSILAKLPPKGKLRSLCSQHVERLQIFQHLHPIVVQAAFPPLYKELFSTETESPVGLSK

RORα = molecular target: T2, RORα (Homo sapiens, UniProt P35398); conditions: selective inverse agonist; Solt et al., 2011, 2012; cited from earlier work
T2 sequence (P35398 1-523): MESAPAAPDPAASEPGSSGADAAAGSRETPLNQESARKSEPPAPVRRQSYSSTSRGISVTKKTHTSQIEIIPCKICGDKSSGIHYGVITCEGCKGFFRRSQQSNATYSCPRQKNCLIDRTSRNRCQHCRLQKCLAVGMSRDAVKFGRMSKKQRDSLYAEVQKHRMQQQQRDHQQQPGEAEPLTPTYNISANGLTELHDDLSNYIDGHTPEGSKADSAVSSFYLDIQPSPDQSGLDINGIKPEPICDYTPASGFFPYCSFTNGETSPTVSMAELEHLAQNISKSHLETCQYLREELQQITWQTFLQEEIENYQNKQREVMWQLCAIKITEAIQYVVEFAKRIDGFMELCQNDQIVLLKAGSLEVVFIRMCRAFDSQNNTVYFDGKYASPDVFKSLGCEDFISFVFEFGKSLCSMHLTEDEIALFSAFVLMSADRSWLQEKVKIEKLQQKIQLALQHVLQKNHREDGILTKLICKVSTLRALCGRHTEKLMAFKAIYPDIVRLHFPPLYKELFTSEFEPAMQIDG

TH17 cell development [2] = conditions: Solt et al., 2011; cited from earlier work
CH-induced PH = assay: Development of chronic hypoxia (CH)-induced pulmonary hypertension, 21 days; format: in vivo; conditions: mice, CH 21 days; SR1001 0.625 mg/day for 25 g mouse s.c. osmotic pump
Description: FIGS. 6A-D—Inhibition of TH17 cell polarization attenuates the development of CH-induced PH. SR1001 prepared in propylene glycol, 0.625 mg/day for 25 g mouse, was delivered sub-cutaneously via an implantable osmotic pump. Mice were exposed to normoxia or chronic hypoxia for 21 days, at which point (A) RVSP, (B) Fulton's index, (C) pulmonary arterial % wall thickness (<150 μm diameter) and (D) hematocrit were measured. Values are means±SEM; *p<0.05 vs. normoxia vehicle #p<0.05 vs. normoxic SR1001, n=4-5/group, analyzed by 2-way ANOVA followed by multiple comparisons Student-Newman-Keuls test.
as §1
CD4+ T cells contribute to chronic hypoxia-induced pulmonary hypertension. To directly assess the contribution of T cells to CH-induced PH, recombination-activating gene 1 (RAG1) knockout mice, which lack the enzyme that plays a crucial role in the development of T and B cells were studied. Therefore, RAG1 KO mice lack mature T and B cells (Mombaerts et al., 1992). RAG1 KO mice were exposed to CH for 21 days or left in normoxia. […] RVSP was measured by direct cardiac puncture under isoflurane anesthesia (Bierer et al., 2011). The inventors also isolated CD4^+ or CD8+ cells from the lymph nodes of WT mice by negative selection using a magnetic bead cell isolation kit (Miltenyi Biotec). 2.5×10^5 cells were injected into RAG1 KO mice. After 2 weeks mice were exposed to CH or normoxia.

TH17 cell development [3] = conditions: Solt et al., 2011; cited from earlier work; remark: listed apart in the source
[4] = 3 weeks CH then SR1001 for additional 2 weeks in CH

## CC(=O)Nc1nc(C)c(S(=O)(=O)Nc2ccc(C(O)(C(F)(F)F)C(F)(F)F)cc2)s1 [SR1001, N-(5-(N-(4-(1,1,1,3,3,3-hexafluoro-2-hydroxypropan-2-yl)phenyl)sulfamoyl)-4-methylthiazol-2-yl)acetamide]
Established PH due to CH; 3 weeks CH then SR1001 (0.625 mg/day for 25 g mouse, s.c. osmotic pump) for additional 2 weeks in CH
  already elevated RVSP: significantly decreased
Established PH due to CH; [4]
  perivascular T cells in the lungs: significant decrease
  pulmonary arterial remodeling: no effect
Established PH due to CH; 3 weeks CH then SR1001 for additional 2 weeks in CH, p<0.0583
  RV remodeling (Fulton's index): strong trend for a decrease
[1]
  perivascular T cells (CD3+) in the pulmonary arterial perivascular region: significant reduction
RORγt
  activity of nuclear receptor RORγt: inhibits the activity
RORα
  activity of nuclear receptor RORα: inhibits the activity
TH17 cell development [2]
  TH17 cell development in vivo: inhibits TH17 cell development
CH-induced PH
  CH-induced increase in RV remodeling (Fulton's index): attenuated
  CH-induced increase in RVSP: attenuated
  CH-induced increase in pulmonary arterial remodeling (% wall thickness): attenuated
TH17 cell development [3]
  TH17 cell development in vitro: inhibits TH17 cell development
